According to patent publication US20060051295A1, “Estrogen receptor interaction with a transcription factor” (priority 2002, published 2006):

What was measured:
VCAM gene expression = assay: Rabbit atherogenic diet model, VCAM mRNA in aorta bow (RNase protection)
cRel = assay: Yeast two-hybrid cRel, no partner; type: cell-based
Description: A yeast two-hybrid assay is a cellular method to quantify the degree of interaction between two proteins. This is done by producing constructs that encode for fusion proteins of the two proteins to be studied, in this case ER and c-Rel, with either the transactivating or DNA binding part of the Gal4. The transactivating and DNA binding part of gal are separately not capable of inducing reporter activity of a gal4-responsive β-galactosidase reporter construct. Due to the interaction of the two proteins the transactivating and DNA binding parts of Gal4 will come in close proximity and as a result induction of a gal-responsive reporter will occur. More specificcally, in this embodiment of the invention the estrogen receptor is fused to the DNA binding domain (DBD) of Gal4, whereas c-Rel is fused to the activation domain (AD) of Gal4. The ER/Gal4-DBD fusion protein will bind to Gal4 response elements that are upstream of the reporter gene β-galactosidase in the yeast strain. Interaction between ER and c-Rel is compound dependent, therefore increasing concentrations of compound in the in vitro system will increase the number of ER and cRel molecules that interact, that can be measured as an increase of β-galactosidase reporter activity until saturation levels are reached. The amount of β-galactosidase reporter activity therefore is a measure for the degree of interaction between estrogen receptor and c-Rel.
Table 5. […] In this assay format, ERα (or ERβ) was fused to the DNA binding domain of GAL4 whereas c-Rel (or RelA) was fused to the activation domain of GAL4. Interaction between ER and NF-κB yields a transcriptionally active complex, that induces the LacZ reporter gene which results in quantifiable β-galactosidase activity. n.d. means: not determined.
pKCRE-ERα, pKCRE-ERβ and pNGV1-GR contain the human wild-type estrogen receptor α (ERα), ERβ or GR respectively under control of the SV40 promoter. The pCMV4-c-Rel expression vector was produced by cloning of the coding region of c-Rel into the pCMV4 vector (Andersson et al., 1989). pGL3-ELAM, pGL3-VCAM and pGL3-ICAM have been constructed based on PCR using the sequences as outlined in appendix 1. The luciferase reporter plasmid 3*NF-κB-TK was constructed by inserting three repeats of the NF-κB binding site from the ICAM promoter (van de Stolpe et al.; J. Biol Chem. 269: 6185-6192. 1994) in front of the herpes simplex virus thymidine kinase (HSV-TK) promoter. The TK promoter was cloned into the Bgl II-site of pGL3-basic (Promega). The triple repeat of NF-κB binding sites was constructed by annealing the oligonucleotide primers 5′-[…]-3′ and 5′-[…]-3′ followed by PRC amplification and subcloning in the pCR™2.1 vector. The insert was excised using HindIII, blunted with Klenow DNA polymerase and ligated into the SmaI site of pGL3-tk-luc. 4xERE-TATA Luc (plasmid nr. 460) contains four repeats of an estrogen responsive element followed by a TATA box and a luciferase gene. The pSV-β-Galactosidase (pSVβ) control vector (Promega) served as a positive control vector for monitoring transfection efficiencies of mammalian cells. The SV40 early promoter and enhancer drive transcription of the LacZ gene which encodes the β-Galactosidase enzyme. The yeast 2-hybrid constructs pGAD424-ERα, pGAD424-ERαdAB and pGAD424-ERβ were constructed by cloning respectively the human ERα, the ERα without the AB domain and the human ERβ cDNA in pGAD424. pGAD424-ERα LBD was constructed by cloning the LBD of ERα, obtained by PCR, in the EcoRI and SalI sites of pGAD424 vector. pGBT9-c-Rel was constructed by cloning the c-Rel fragment, obtained by PCR on pCMV4-c-Rel in the EcoRI and BamHI sites of pGBT9. The p65/RelA cDNA was obtained by PCR on the pCMV4-p65.

## C[C@]12CC[C@@H]3c4ccc(O)cc4CC[C@H]3[C@@H]1CC[C@@H]2O [Org E2, 17β-estradiol]
VCAM gene expression; diet 2 weeks, 4 hours after 3 μg/kg s.c.
  VCAM mRNA level (RNase protection, divided by GAPDH signal): 0.004949
VCAM gene expression; diet 2 weeks, 12 hours after 3 μg/kg s.c.
  VCAM mRNA level (RNase protection, divided by GAPDH signal): 0.01033
VCAM gene expression; diet 4 weeks, 4 hours after 3 μg/kg s.c.
  VCAM mRNA level (RNase protection, divided by GAPDH signal): 0.005097
VCAM gene expression; diet 4 weeks, 12 hours after 3 μg/kg s.c.
  VCAM mRNA level (RNase protection, divided by GAPDH signal): 0.006225
VCAM gene expression; diet 8 weeks, 4 hours after 3 μg/kg s.c.
  VCAM mRNA level (RNase protection, divided by GAPDH signal): 0.007292
VCAM gene expression; diet 8 weeks, 12 hours after 3 μg/kg s.c.
  VCAM mRNA level (RNase protection, divided by GAPDH signal): 0.009832
VCAM gene expression; diet 18 weeks, 4 hours after 3 μg/kg s.c.
  VCAM mRNA level (RNase protection, divided by GAPDH signal): 0.0345
VCAM gene expression; diet 18 weeks, 12 hours after 3 μg/kg s.c.
  VCAM mRNA level (RNase protection, divided by GAPDH signal): 0.02017
cRel; E2 0.0003 nM
  β-galactosidase activity: 1251
cRel; E2 0.003 nM
  β-galactosidase activity: 1135
cRel; E2 0.01 nM
  β-galactosidase activity: 1093
cRel; E2 0.03 nM
  β-galactosidase activity: 1202
cRel; E2 0.1 nM
  β-galactosidase activity: 1204
cRel; E2 0.3 nM
  β-galactosidase activity: 1202
cRel; E2 1 nM
  β-galactosidase activity: 1145
cRel; E2 3 nM
  β-galactosidase activity: 1246
cRel; E2 10 nM
  β-galactosidase activity: 1146
cRel; E2 30 nM
  β-galactosidase activity: 1411
cRel; E2 100 nM
  β-galactosidase activity: 1261
